# Assay results reported in patent EP0430983B1, “USE OF CASTANOSPERMINE AS AN ANTI-INFLAMMATORY AND IMMUNOSUPPRESSANT AGENT” (THE AUSTRALIAN NATIONAL UNIVERSITY, priority 1988, dated 1990).
# Several values for one entry are separate records, joined by “and”; a condition that tells them apart may be missing. Equal entries are not always repeated.
# What was measured:
# passive EAE = assay: Passively induced experimental allergic encephalomyelitis (passive EAE), clinical grading and CNS histology; format: in vivo, Lewis (RT-1') rats; settings: for protection against clinical EAE: osmotic pump implanted at time of cell transfer; for mean clinical score: score out of possible 5 ± standard errors
# [1] = Preliminary toxicity studies; format: in vivo; settings: 500 mg/kg/day for 7 days; animals observed for a 6 week period after treatment; data not shown
# [2] = tested on: passively induced adjuvant arthritis; assay: Passively induced adjuvant arthritis, change in foot volume; format: in vivo, (DAxLewis)F₁ rats; settings: for % Δ in foot volume: 350 mg/kg/day s.c. osmotic pump from cell transfer, individual rats, 350 mg/kg/day
# Procedure: (DAxLewis)F₁ rats were immunized with 3mg M.butyricum in light mineral oil injected intradermally in both hind feet. Ten days later spleens were removed and made into a single cell suspension in RPMI containing 5% fetal calf serum, 200mM L Glutamine, 5 x 10⁻ ⁵M 2-ME, penicillin and streptomycin. Cells were adjusted to 2 x 10⁶ cells/ml, and cultured in 50ml media in 75mm culture flasks. ConA was added at 2µg/ml and cultures incubated for 72hrs at 37°C in an atmosphere of 10% CO₂, 7% O₂ and the balance N₂. Cells were then washed and transferred at 50 x 10⁶ or 60 x 10⁶ cells/rat i.v. into 10 weeks old male (DAxLewis)F₁.
# Castanospermine was put in osmotic pumps (Alza Corp.) which delivered 5µl/hr for 14 days. Pumps were implanted subcutaneously at the time of cell transfer. Rats received 350mg/kg/day of castanospermine.
# Hind feet of rats were measured in 4 diameters beginning the day of cell transfer. The measurements are averaged and expressed as % change in volume of feet.
# Two experiments have been performed both treating rats with 350mg/kg/day castanospermine beginning the day of cell transfer.
# pancreatic islets = assay: Transplantation of allogeneic pancreatic islets, graft rejection by blood glucose; format: in vivo, CBA mice
# Procedure: Donor mice were Balb/c (H2^d) and recipients were CBA (H2^k). Donor pancreatic islets were prepared using standard techniques. Approximately 400 islets were isolated from 10 donor mice. These freshly isolated islets, in groups of 50, were placed into CBA blood clots and these were placed under the kidney capsule of CBA mice which were diabetic (blood glucose 20mM/litre).
# Two recipients were implanted (subcutaneously) with miniosmotic pumps containing CS at the time of islet transplantation. These pumps delivered CS at a dose of 300 mg/kg/mouse/day for a period of 14 days. Two control mice were sham operated.
# Blood samples (10µl) were taken daily and assayed for blood glucose using an automatic analyser (Beckman Glucose Analyzer 2).
# All transplant recipients became normoglycaemic within 24 hours indicating successful transplantation of all of the grafts. Rejection of grafts was assumed to occur when animals became hyperglycaemic. Control animals rejected on days 9 and 12.
# renal allografts = assay: Renal allograft survival; format: in vivo, DA rats; settings: pump; for No. of rats surviving more than 14 days: DA rats with (DA/LEW) renal allografts; for No. of days of Survival: the rat surviving more than 14 days
# Description: One kidney from each rat was replaced with a donor kidney, after which the remaining original rat kidney was removed. The results are set out in Table 5 below: Table 5
# [3] = tested on: Delayed hypersensitivity (DTH); assay: Delayed hypersensitivity (DTH) to sheep red blood cells, foot swelling; format: in vivo, C57BL mice; settings: CS ip every 4 hours from footpad testing, total 300 mg/kg/mouse over 24 hrs; 5 mice/group; control group 33%
# Procedure: C57BL mice were given 10⁸ sheep red blood cells (SRBC) intravenously. Five days later 10⁵ SRBC in a volume of […] was injected into the left hind footpad and […] saline into the right. Castanospermine was given every 4 hours ip beginning at the time of footpad testing. Total dose of CS over 24 hrs was 300 mg/kg/mouse. Control mice were given saline every 4 hours, and 5 mice/group were used in both test and control groups.
# [4] = Table 1, CS 100 mg/kg/day, s.c. miniosmotic pump at time of cell transfer
# [5] = Table 1, CS 200 mg/kg/day, s.c. miniosmotic pump at time of cell transfer
smiles,measurement,setting,value
"O[C@H]1[C@H](O)[C@@H](O)CN2CC[C@H](O)[C@H]12 [CS, Castanospermine]",protection against clinical EAE,passive EAE; 100 mg/kg/day,no protective effect
same,protection against clinical EAE,passive EAE; 200 mg/kg/day,only partial protection
same,number of inflammatory lesions in CNS tissues (histology),"passive EAE; 300 mg/kg/day from cell transfer, rats killed at day 8, compared with untreated rats",approximately the same number of inflammatory lesions as untreated rats
same,protection against clinical EAE,passive EAE; 300 mg/kg/day,complete protection
same,mean day of onset,passive EAE; [4],4±0
same,mean clinical score,passive EAE; [4],4.0±0
same,animals with EAE,"passive EAE; Table 1, CS 100 mg/kg/day, s.c. miniosmotic pump placed at time of cell transfer",4/4
same,mean day of onset,passive EAE; [5],5±0
same,mean clinical score,passive EAE; [5],2.0±0
same,animals with EAE,"passive EAE; Table 1, CS 200 mg/kg/day, s.c. miniosmotic pump placed at time of cell transfer",4/4
same,animals with EAE,"passive EAE; Table 1, CS 300 mg/kg/day, s.c. miniosmotic pump placed at time of cell transfer",0/4
same,animals with EAE,"passive EAE; Table 2, convalescent rats (compromised blood-brain barrier), CS 300 mg/kg/day, s.c. miniosmotic pump at time of secondary cell transfer",0/4
same,animals with EAE,"passive EAE; Table 2, naive rats, CS 300 mg/kg/day, s.c. miniosmotic pump at time of cell transfer",0/4
same,animals with EAE,"passive EAE; Table 3, experiment 1, CS 150 mg/kg i.p., 12 hourly, initiated on day 4 (before clinical signs), for 3 days",0/3
same,animals with EAE,"passive EAE; Table 3, experiment 2, CS 150 mg/kg i.p., 12 hourly, initiated on day 4 (after onset of signs)",3/3
same,mean clinical score,"passive EAE; Table 3, experiment 2, CS 150 mg/kg i.p., 12 hourly, initiated on day 4",4±0
same,animals with EAE,"passive EAE; Table 3, experiment 3, CS 300 mg/kg osmotic pump, initiated on day 4 (after onset of signs)",5/5
same,mean clinical score,"passive EAE; Table 3, experiment 3, CS 300 mg/kg osmotic pump, initiated on day 4",4±0
same,clinical signs of EAE with delayed treatment,"passive EAE; exp.1, two 150 mg/kg i.p. injections daily from 4 days after cell transfer for 3 days, signs in untreated animals not apparent until day 6",did not develop clinical signs of EAE
same,clinical signs of EAE with delayed treatment,"passive EAE; exp.3, osmotic pumps implanted on day 4 after cell transfer, all animals showed mild clinical signs on day 4",failed to modify subsequent disease expression
same,second episode of passively induced EAE,"passive EAE; rats recovered from one episode, pump delivering 300 mg/kg/day on the day of secondary transfer",did not develop a second episode of the disease
same,toxic effect,[1],no apparent toxic effect
same,% Δ in foot volume,"[2]; Exp 1, 50 x 10^6 cells, Day 7",-5% and 5% and 0% and +12%
same,% Δ in foot volume,"[2]; Exp 1, 50 x 10^6 cells, Day 14",-1% and 0% and +9% and +4%
same,inflammation of feet,"[2]; Exp 1 and Exp 2, 350 mg/kg/day from cell transfer",In no case did any of the CS treated rats show inflammation
same,% Δ in foot volume,"[2]; Exp 2, 60 x 10^6 cells, Day 7",-5% and -7% and -3% and +3%
same,% Δ in foot volume,"[2]; Exp 2, 60 x 10^6 cells, Day 14",-8% and -18% and -14% and -1%
same,swelling and inflammation after end of treatment,"[2]; Exp 2, pumps removed on day 15, animals followed out to day 28+",remained normal
same,day of graft rejection (hyperglycaemia),"pancreatic islets; Balb/c islets in diabetic CBA mice, 300 mg/kg/mouse/day s.c. miniosmotic pump for 14 days, one mouse, controls rejected on days 9 and 12",19 days
same,day of graft rejection (hyperglycaemia),"pancreatic islets; other CS treated mouse, whose miniosmotic pump was found not to have delivered its CS payload",12 days
same,No. of rats surviving more than 14 days,"renal allografts; 100mg/kg, 9 rats",1
same,No. of days of Survival,renal allografts; 100mg/kg,100 days
same,No. of rats surviving more than 14 days,"renal allografts; 250mg/kg, 7 rats",1
same,No. of days of Survival,renal allografts; 250mg/kg,33 days
same,increase in foot swelling,[3],11%
